# According to US20070128217A1 (priority 2003, published 2007):
# Legend:
# [1] = test system: antibodies in sera from SARS patients (sera 1a, 1b, 2, 6, 37, 62, London, SARS-yellow, SARS-green); assay type: binding, human; design: Binding of serum 6 to linear peptides of protein X1 of SARS-CoV Urbani / Binding of serum 37 to linear peptides of protein X1 of SARS-CoV Urbani / Binding of serum 6 to looped/cyclic peptide (PEPSCAN-ELISA) / Binding of serum 37 to looped/cyclic peptide (PEPSCAN-ELISA) / Binding of serum 37 to looped/cyclic peptides of protein X1 of SARS-CoV Urbani / Binding of serum 6 to linear peptides of protein X2 / Binding of serum 37 to linear peptides of protein X2 / Binding of serum 37 to looped/cyclic peptides of protein X2 of SARS-CoV Urbani / Binding of serum 6 to linear peptides of protein M of SARS-CoV Urbani / Binding of serum 37 to linear peptides of protein M of SARS-CoV Urbani / Binding of serum 6 to looped/cyclic peptides of protein M of SARS-CoV Urbani / Binding of serum 37 to looped/cyclic peptides of protein M of SARS-CoV Urbani / Binding of serum 6 to linear peptides of protein X3 of SARS-CoV Urbani / Binding of serum 37 to linear peptides of protein X3 of SARS-CoV Urbani / Binding of serum 37 to looped/cyclic peptides of protein X3 of SARS-CoV Urbani / Binding of serum 6 to linear peptides of protein X4 of SARS-CoV Urbani / Binding of serum 37 to linear peptides of protein X4 of SARS-CoV Urbani / Binding of serum 37 to looped/cyclic peptides of protein X4 of SARS-CoV Urbani / Binding of serum 6 to linear peptides of protein X5 of SARS-CoV Urbani / Binding of serum 37 to linear peptides of protein X5 of SARS-CoV Urbani / Binding of serum 37 to looped/cyclic peptides of protein X5 of SARS-CoV Urbani / Binding of serum 6 to linear peptides of protein N of SARS-CoV Urbani / Binding of serum 37 to linear peptides of protein N of SARS-CoV Urbani / Binding of serum 6 to linear peptide (PEPSCAN-ELISA) / Binding of serum 1a to looped/cyclic peptides of protein N of SARS-CoV Urbani / Binding of serum 1b to looped/cyclic peptides of protein N of SARS-CoV Urbani / Binding of serum 2 to looped/cyclic peptides of protein N of SARS-CoV Urbani / Binding of serum 6 to looped/cyclic peptides of protein N of SARS-CoV Urbani / Binding of serum 37 to looped/cyclic peptides of protein N of SARS-CoV Urbani / Binding of serum 62 to looped/cyclic peptides of protein N of SARS-CoV Urbani / Binding of serum London to looped/cyclic peptides of protein N of SARS-CoV Urbani / Binding of serum SARS-green to looped/cyclic peptides of protein N of SARS-CoV Urbani: unit not given here
# [2] = test system: control sera (pooled serum of ten healthy LUMC hospital workers; commercial negative donor pooled serum from the Dutch bloodbank); assay type: binding, human
# [3] = test system: rabbit serum obtained by immunizing a rabbit with the SARS-CoV strain Frankfurt 1; assay type: binding; design: Binding of a rabbit serum to linear peptides / Binding of a rabbit serum to looped peptides / Rabbit serum linear peptides / Rabbit serum looped peptides / Binding of a rabbit serum to linear peptides of protein N of SARS-CoV Urbani (Rabbit serum linear peptides) / Binding of a rabbit serum to looped/cyclic peptides of protein N of SARS-CoV Urbani (Rabbit serum looped peptides): unit not given here
# [4] = test system: recombinant human anti-SARS-CoV antibody 03-018; assay type: binding; design: Binding of antibody 03-018 to linear peptides of the N protein of SARS-CoV Urbani / Binding of antibody 03-018 to looped/cyclic peptides of the N protein of SARS-CoV Urbani: unit not given here
Sequence,Binding of serum 1a to linear peptides of protein N of SARS-CoV Urbani [1],Binding of serum 1a to looped/cyclic peptides of protein N of SARS-CoV Urbani [1],Binding of serum 1b to linear peptides of protein N of SARS-CoV Urbani [1],Binding of serum 1b to looped/cyclic peptides of protein N of SARS-CoV Urbani [1],Binding of serum 2 to linear peptides of protein N of SARS-CoV Urbani [1],Binding of serum 2 to looped/cyclic peptides of protein N of SARS-CoV Urbani [1],Binding of serum 6 to linear peptides of protein N of SARS-CoV Urbani [1],Binding of serum 6 to looped/cyclic peptides of protein N of SARS-CoV Urbani [1],Binding of serum 37 to linear peptides of protein N of SARS-CoV Urbani [1],Binding of serum 37 to looped/cyclic peptides of protein N of SARS-CoV Urbani [1],Binding of serum 62 to linear peptides of protein N of SARS-CoV Urbani [1],Binding of serum 62 to looped/cyclic peptides of protein N of SARS-CoV Urbani [1],Binding of serum London to linear peptides of protein N of SARS-CoV Urbani [1],Binding of serum London to looped/cyclic peptides of protein N of SARS-CoV Urbani [1],Binding of serum SARS-green to linear peptides of protein N of SARS-CoV Urbani [1],Binding of serum SARS-green to looped/cyclic peptides of protein N of SARS-CoV Urbani [1],Binding of serum SARS-yellow to linear peptides of protein N of SARS-CoV Urbani [1],Binding of serum SARS-yellow to looped/cyclic peptides of protein N of SARS-CoV Urbani [1],Control Serum Blood-Bank Looped peptides [2],Control serum Blood-bank linear peptides [2],further results
TVTLLPAADMDDFSR,0.2,0.3,0.1,0.2,0.1,0.2,0.2,0.0,0.7,0.4,0.5,0.1,0.5,0.2,0.3,0.5,0.5,0.2,0.3,0.6,Control serum LUMC linear peptides [2]: 0.6; Control serum LUMC looped peptides [2]: 0.3; Binding of a rabbit serum to linear peptides of protein N of SARS-CoV Urbani (Rabbit serum linear peptides) [3]: 0.1; Binding of a rabbit serum to looped/cyclic peptides of protein N of SARS-CoV Urbani (Rabbit serum looped peptides) [3]: 0.3; Binding of antibody 03-018 to linear peptides of the N protein of SARS-CoV Urbani [4]: 0.1; Binding of antibody 03-018 to looped/cyclic peptides of the N protein of SARS-CoV Urbani [4]: 0.2
TWLTYHGAIKLDDKD,0.2,0.2,0.1,0.2,0.1,0.2,0.2,0.1,0.6,0.4,0.6,0.3,0.5,0.2,0.3,0.3,0.6,0.3,0.4,0.6,Control serum LUMC linear peptides [2]: 0.6; Control serum LUMC looped peptides [2]: 0.4; Binding of a rabbit serum to linear peptides of protein N of SARS-CoV Urbani (Rabbit serum linear peptides) [3]: 0.1; Binding of a rabbit serum to looped/cyclic peptides of protein N of SARS-CoV Urbani (Rabbit serum looped peptides) [3]: 0.3; Binding of antibody 03-018 to linear peptides of the N protein of SARS-CoV Urbani [4]: 0.1; Binding of antibody 03-018 to looped/cyclic peptides of the N protein of SARS-CoV Urbani [4]: 0.2
